We go through two compounds from US10328027B2, “Assisted particle size reduction process” (HOVIONE INTERNATIONAL LTD, priority 2014, dated 2019).

A short description of the series: Particle size distribution (Dv10, Dv50, Dv90, span) of processed API particles. It is filed as physicochemical. An excerpt: The most common approach for expressing particle size results is to report Dv10, Dv50, and Dv90 values based on a volume distribution. The span calculation [(Dv90−Dv10)/Dv50] is the most common format to express distribution width.
The terms Dv10, Dv50, and Dv90 as discussed herein are known to those skilled in the art. Dv50 refers to the maximum particle diameter below which 50% of the sample volume exists. Dv90 refers to the maximum particle diameter below which 90% of the sample volume exists. Dv10 refers to the maximum particle diameter below which 10% of the sample volume exists. The term particle size distribution span refers to the result of the calculation [(Dv90−Dv10)/Dv50].

[1] abbreviates: Comparison, process of WO2011131947 (water), product isolated by spray drying (45° C.).
Where [2] appears, read: Comparison, process of WO2011131947, suspension in anti-solvent water, after size reduction (750 bar, 45 cycles).
[3] abbreviates: Example 2, invention, product isolated by spray drying (45° C.).
[4] abbreviates: Example 2, invention, suspension in water/acetone, after particle size reduction (microfluidizer 750 bar, 45 cycles).
Where [5] appears, read: Example 2, invention, water/acetone, after aging for 22 hours.
[6] abbreviates: Example 1, after aging for 20 hours without stirring at room temperature.
Where [7] appears, read: Example 1, product isolated by spray drying (100° C.) after distillation to approx. 100% heptane.
Setting [8] is: Example 1, suspension in n-heptane/ethyl acetate, after particle size reduction (microfluidizer 400 bar, 50 cycles).

SMILES strings stand for the structures.

`CCC(=O)O[C@]1(C(=O)SCF)[C@H](C)C[C@H]2[C@@H]3C[C@H](F)C4=CC(=O)C=C[C@]4(C)[C@@]3(F)[C@@H](O)C[C@@]21C` [Fluticasone propionate]: the Dv10 under setting [1] is given as 0.99 μm; the Dv10 under setting [2] worked out at 1.28 μm; the Dv10 under setting [3] came out at 1.38 μm; the Dv10 under setting [4] turned out to be 0.92 μm; the Dv10 under setting [5] came out at 1.42 μm. For the same compound, the Dv50 is recorded as 1.94 μm under setting [1]; 2.44 μm under setting [2]; 2.42 μm under setting [3]; 1.81 μm under setting [4]; 2.53 μm under setting [5]. The Dv90 turned out to be 3.60 μm under setting [1]; 4.45 μm under setting [2]; 4.18 μm under setting [3]; 3.39 μm under setting [4]; 4.43 μm under setting [5]. For the same compound, the “span [(Dv90-Dv10)/Dv50]” value runs as follows: under setting [1], 1.4; under setting [2], 1.3; under setting [3], 1.2; under setting [4], 1.4; under setting [5], 1.2.

As for `C[N+]1(C)[C@@H]2C[C@@H](OC(=O)C(O)(c3cccs3)c3cccs3)C[C@H]1[C@@H]1O[C@@H]12` [Tiotropium Bromide], under setting [6], the Dv10 is on record as 0.78 μm, the Dv50 was determined as 3.33 μm, the Dv90 turned out to be 7.45 μm and the “span [(Dv90-Dv10)/Dv50]” value stood at 2.0. Under setting [7], the Dv10 is 0.83 μm, the Dv50 was found to be 3.02 μm, the Dv90 was 7.05 μm and the “span [(Dv90-Dv10)/Dv50]” value worked out at 2.1. For the same compound, under setting [8], the Dv10 was 0.67 μm, the Dv50 was determined as 2.98 μm, the Dv90 is 7.09 μm and the “span [(Dv90-Dv10)/Dv50]” value is listed as 2.2.
